pIC50: −log10 of the molar value. Values after ≈ are worked out from the molar mass of the structure shown.
Experiments:
Candida albicans [1] = assay: Antimicrobial activity against Candida albicans after 48 hrs by agar dilution method; assay type: functional
Vero = assay: Cytotoxicity against African green monkey Vero cells assessed as reduction in cell viability after 72 hrs by MTT assay; assay type: cell-based; conditions: Chlorocebus sabaeus
Staphylococcus aureus [2] = assay: Antimicrobial activity against methicillin-resistant Staphylococcus aureus ATCC 43866 after 48 hrs by broth dilution technique; assay type: functional; conditions: ATCC 43866, 48 h
[3] = tested on: Mycobacterium tuberculosis; assay: Antitubercular activity against Mycobacterium tuberculosis H37Rv after 7 days by Resazurin micro titer assay; assay type: functional; conditions: 168 h
Staphylococcus aureus [4] = assay: Antimicrobial activity against methicillin-sensitive Staphylococcus aureus ATCC 35556 after 48 hrs by broth dilution technique; assay type: functional; conditions: ATCC 35556, 48 h
Klebsiella pneumoniae = assay: Antimicrobial activity against Klebsiella pneumoniae after 48 hrs by broth dilution technique; assay type: functional
Escherichia coli = assay: Antimicrobial activity against Escherichia coli ATCC 25922 after 48 hrs by broth dilution technique; assay type: functional; conditions: ATCC 25922, 48 h
Candida albicans [5] = assay: Ratio of Amphotericin B MIC to compound MIC for Candida albicans after 48 hrs by broth dilution technique; assay type: functional
Staphylococcus aureus [6] = assay: Ratio of ciprofloxacin MIC to compound MIC for methicillin-resistant Staphylococcus aureus ATCC 43866 after 48 hrs by broth dilution technique; assay type: functional

Row | Compound | MIC (Candida albicans [1]) | pIC50 (Vero) | MIC (Staphylococcus aureus [2]) | MIC [3] | MIC (Staphylococcus aureus [4]) | MIC (Klebsiella pneumoniae) | MIC (Escherichia coli) | Ratio (Candida albicans [5]) | Ratio (Staphylococcus aureus [6])
1 | O=C(NNC(=O)c1cc([N+](=O)[O-])c[nH]1)Nc1ccccc1 | 3.12 µg/mL (≈ 10.8 µM) | 3.45 | 3.12 µg/mL (≈ 10.8 µM) | 40.6 µg/mL (≈ 140 µM) | 1.56 µg/mL (≈ 5.39 µM) | 3.12 µg/mL (≈ 10.8 µM) | 3.12 µg/mL (≈ 10.8 µM) | – | –
2 | COc1ccc(NC(=O)NNC(=O)c2cc([N+](=O)[O-])c[nH]2)cc1 | 3.12 µg/mL (≈ 9.79 µM) | 3.40 | 3.12 µg/mL (≈ 9.79 µM) | 2.5 µg/mL (≈ 7.83 µM) | 1.56 µg/mL (≈ 4.89 µM) | 3.12 µg/mL (≈ 9.79 µM) | 3.12 µg/mL (≈ 9.79 µM) | – | –
3 | O=C(NNC(=O)c1cc([N+](=O)[O-])c[nH]1)Nc1ccc([N+](=O)[O-])cc1 | 3.12 µg/mL (≈ 9.35 µM) | 3.68 | 3.12 µg/mL (≈ 9.35 µM) | 0.8 µg/mL (≈ 2.39 µM) | 1.56 µg/mL (≈ 4.67 µM) | 3.12 µg/mL (≈ 9.35 µM) | 3.12 µg/mL (≈ 9.35 µM) | – | –
4 | O=C(NNC(=O)c1cc([N+](=O)[O-])c[nH]1)Nc1ccc(Br)cc1 | 3.12 µg/mL (≈ 8.49 µM) | 3.42 | 3.12 µg/mL (≈ 8.49 µM) | 1.1 µg/mL (≈ 2.99 µM) | 1.56 µg/mL (≈ 4.24 µM) | 3.12 µg/mL (≈ 8.49 µM) | 3.12 µg/mL (≈ 8.49 µM) | – | –
5 | O=C(NNC(=O)c1cc([N+](=O)[O-])c[nH]1)Nc1ccc(Cl)cc1 | 3.12 µg/mL (≈ 9.65 µM) | 3.66 | 6.25 µg/mL (≈ 19.3 µM) | 2 µg/mL (≈ 6.18 µM) | 3.12 µg/mL (≈ 9.65 µM) | 3.12 µg/mL (≈ 9.65 µM) | 3.12 µg/mL (≈ 9.65 µM) | – | –
6 | COc1ccc(OC)c(NC(=O)NNC(=O)c2cc([N+](=O)[O-])c[nH]2)c1 | 3.12 µg/mL (≈ 8.95 µM) | 3.48 | 3.12 µg/mL (≈ 8.95 µM) | 14.5 µg/mL (≈ 41.5 µM) | 1.56 µg/mL (≈ 4.47 µM) | 3.12 µg/mL (≈ 8.95 µM) | 3.12 µg/mL (≈ 8.95 µM) | – | –
7 | O=C(NCc1ccccc1)NNC(=O)c1cc([N+](=O)[O-])c[nH]1 | 3.12 µg/mL (≈ 10.3 µM) | 3.46 | 3.12 µg/mL (≈ 10.3 µM) | 15.2 µg/mL (≈ 50.1 µM) | 1.56 µg/mL (≈ 5.14 µM) | 6.25 µg/mL (≈ 20.6 µM) | 6.25 µg/mL (≈ 20.6 µM) | – | –
8 | O=C(NCCc1ccccc1)NNC(=O)c1cc([N+](=O)[O-])c[nH]1 | 3.12 µg/mL (≈ 9.85 µM) | 3.66 | 6.25 µg/mL (≈ 19.7 µM) | 10.3 µg/mL (≈ 32.5 µM) | 3.12 µg/mL (≈ 9.85 µM) | 6.25 µg/mL (≈ 19.7 µM) | 6.25 µg/mL (≈ 19.7 µM) | – | –
9 | O=C(NCc1ccco1)NNC(=O)c1cc([N+](=O)[O-])c[nH]1 | 3.12 µg/mL (≈ 10.7 µM) | 3.35 | 3.12 µg/mL (≈ 10.7 µM) | 0.92 µg/mL (≈ 3.14 µM) | 1.56 µg/mL (≈ 5.32 µM) | 3.12 µg/mL (≈ 10.7 µM) | 3.12 µg/mL (≈ 10.7 µM) | – | –
10 | O=C(NNC(=O)c1cc([N+](=O)[O-])c[nH]1)NC1CCCC1 | 3.12 µg/mL (≈ 11.1 µM) | 3.64 | 3.12 µg/mL (≈ 11.1 µM) | 12.5 µg/mL (≈ 44.4 µM) | 1.56 µg/mL (≈ 5.55 µM) | 3.12 µg/mL (≈ 11.1 µM) | 3.12 µg/mL (≈ 11.1 µM) | – | –
11 | Cn1cc([N+](=O)[O-])cc1C(=O)NNC(=O)Nc1ccccc1 | 1.56 µg/mL (≈ 5.14 µM) | 3.51 | 3.12 µg/mL (≈ 10.3 µM) | 59.2 µg/mL (≈ 195 µM) | 1.56 µg/mL (≈ 5.14 µM) | 3.12 µg/mL (≈ 10.3 µM) | 1.56 µg/mL (≈ 5.14 µM) | 2 | –
12 | COc1ccc(NC(=O)NNC(=O)c2cc([N+](=O)[O-])cn2C)cc1 | 1.56 µg/mL (≈ 4.68 µM) | 3.48 | 3.12 µg/mL (≈ 9.38 µM) | 26.1 µg/mL (≈ 78.3 µM) | 1.56 µg/mL (≈ 4.68 µM) | 3.12 µg/mL (≈ 9.38 µM) | 1.56 µg/mL (≈ 4.68 µM) | 2 | –
13 | Cn1cc([N+](=O)[O-])cc1C(=O)NNC(=O)Nc1ccc([N+](=O)[O-])cc1 | 1.56 µg/mL (≈ 4.48 µM) | 3.40 | 3.12 µg/mL (≈ 8.97 µM) | 11.9 µg/mL (≈ 34.2 µM) | 1.56 µg/mL (≈ 4.48 µM) | 3.12 µg/mL (≈ 8.97 µM) | 1.56 µg/mL (≈ 4.48 µM) | 2 | –
14 | Cn1cc([N+](=O)[O-])cc1C(=O)NNC(=O)Nc1ccc(Br)cc1 | 1.56 µg/mL (≈ 4.08 µM) | 3.22 | 3.12 µg/mL (≈ 8.18 µM) | 7.8 µg/mL (≈ 20.4 µM) | 1.56 µg/mL (≈ 4.08 µM) | 3.12 µg/mL (≈ 8.18 µM) | 1.56 µg/mL (≈ 4.08 µM) | 2 | –
15 | Cn1cc([N+](=O)[O-])cc1C(=O)NNC(=O)Nc1ccc(Cl)cc1 | 1.56 µg/mL (≈ 4.62 µM) | 3.54 | 3.12 µg/mL (≈ 9.25 µM) | 30.5 µg/mL (≈ 90.3 µM) | 1.56 µg/mL (≈ 4.62 µM) | 3.12 µg/mL (≈ 9.25 µM) | 1.56 µg/mL (≈ 4.62 µM) | 2 | –
16 | COc1ccc(OC)c(NC(=O)NNC(=O)c2cc([N+](=O)[O-])cn2C)c1 | 1.56 µg/mL (≈ 4.29 µM) | 3.37 | 6.25 µg/mL (≈ 17.2 µM) | 42.4 µg/mL (≈ 117 µM) | 3.12 µg/mL (≈ 8.6 µM) | 6.25 µg/mL (≈ 17.2 µM) | 1.56 µg/mL (≈ 4.29 µM) | 2 | –
17 | C=[N+]([O-])c1cc(C(=O)NNC(=O)NCc2ccccc2)n(C)c1 | 1.56 µg/mL (≈ 4.95 µM) | 3.52 | 3.12 µg/mL (≈ 9.91 µM) | 51.9 µg/mL (≈ 165 µM) | 1.56 µg/mL (≈ 4.95 µM) | 3.12 µg/mL (≈ 9.91 µM) | 3.12 µg/mL (≈ 9.91 µM) | 2 | –
18 | Cn1cc([N+](=O)[O-])cc1C(=O)NNC(=S)NCc1ccccc1 | 1.56 µg/mL (≈ 4.68 µM) | 3.62 | 1.56 µg/mL (≈ 4.68 µM) | 31.9 µg/mL (≈ 95.7 µM) | 0.78 µg/mL (≈ 2.34 µM) | 3.12 µg/mL (≈ 9.37 µM) | 1.56 µg/mL (≈ 4.68 µM) | 2 | 4
